Experimental data from ChEMBL document CHEMBL1821675, “The selective P-TEFb inhibitor CAN508 targets angiogenesis” (Eur J Med Chem, 2011).

Columns and labels:
[1] = tested on: SF-268; test: Cytotoxicity against human SF268 cells; format: functional
[2] = tested on: COLO 205; test: Cytotoxicity against human COLO205 cells; format: functional
[3] = tested on: NCI-H460; test: Cytotoxicity against human NCI-H460 cells; format: functional
[4] = tested on: LOX IMVI; test: Cytotoxicity against human LOXIMVI cells; format: functional
[5] = tested on: M14; test: Cytotoxicity against human M14 cells; format: functional
[6] = tested on: Malme-3M; test: Cytotoxicity against human MALME-3M cells; format: functional
[7] = tested on: SK-MEL-2; test: Cytotoxicity against human SK-MEL-2 cells; format: functional
[8] = tested on: TK-10; test: Cytotoxicity against human TK10 cells; format: functional
[9] = tested on: HUVEC; test: Antiangiogenic activity against HUVEC cells assessed as inhibition of VEGF-induced cell migration-associated wound closure after 16 hrs by microscopic analysis; format: functional, cell-based; details: Homo sapiens
[10] = Antiangiogenic activity in VEGF-stimulated HMEC1 assessed as reduction in total length of tube at 40 uM after 16 hrs by photographic analysis; format: functional, Homo sapiens, HMEC-1; parameters: scale not given: the % may be the effect or the level left
[11] = biological target: Casein kinase II subunit alpha (Homo sapiens) (UniProt P68400); test: Inhibition of CK2alpha assessed as residual activity at 10 uM by radioactivity assay in presence of 20 uM ATP
[12] = biological target: Receptor tyrosine-protein kinase erbB-4 (Homo sapiens) (UniProt Q15303); test: Inhibition of HER4 assessed as residual activity at 10 uM by radioactivity assay in presence of 5 uM ATP
[13] = biological target: Maternal embryonic leucine zipper kinase (Homo sapiens) (UniProt Q14680); test: Inhibition of MELK assessed as residual activity at 10 uM by radioactivity assay in presence of 50 uM ATP
[14] = biological target: NUAK family SNF1-like kinase 1 (Homo sapiens) (UniProt O60285); test: Inhibition of NUAK1 assessed as residual activity at 10 uM by radioactivity assay in presence of 20 uM ATP
[15] = biological target: Serine/threonine-protein kinase PAK 6 (Homo sapiens) (UniProt Q9NQU5); test: Inhibition of PAK6 assessed as residual activity at 10 uM by radioactivity assay in presence of 20 uM ATP
[16] = biological target: Ribosomal protein S6 kinase alpha-1 (Homo sapiens) (UniProt Q15418); test: Inhibition of RSK1 assessed as residual activity at 10 uM by radioactivity assay in presence of 50 uM ATP
[17] = biological target: Serine/threonine-protein kinase Sgk1 (Homo sapiens) (UniProt O00141); test: Inhibition of SGK1 assessed as residual activity at 10 uM by radioactivity assay in presence of 20 uM ATP
[18] = biological target: 3-phosphoinositide-dependent protein kinase 1 (Homo sapiens) (UniProt O15530); test: Inhibition of PDK1 assessed as residual activity at 10 uM by radioactivity assay in presence of 20 uM ATP
Sequence of 3-phosphoinositide-dependent protein kinase 1 (Homo sapiens) (O15530 whole entry, looked up): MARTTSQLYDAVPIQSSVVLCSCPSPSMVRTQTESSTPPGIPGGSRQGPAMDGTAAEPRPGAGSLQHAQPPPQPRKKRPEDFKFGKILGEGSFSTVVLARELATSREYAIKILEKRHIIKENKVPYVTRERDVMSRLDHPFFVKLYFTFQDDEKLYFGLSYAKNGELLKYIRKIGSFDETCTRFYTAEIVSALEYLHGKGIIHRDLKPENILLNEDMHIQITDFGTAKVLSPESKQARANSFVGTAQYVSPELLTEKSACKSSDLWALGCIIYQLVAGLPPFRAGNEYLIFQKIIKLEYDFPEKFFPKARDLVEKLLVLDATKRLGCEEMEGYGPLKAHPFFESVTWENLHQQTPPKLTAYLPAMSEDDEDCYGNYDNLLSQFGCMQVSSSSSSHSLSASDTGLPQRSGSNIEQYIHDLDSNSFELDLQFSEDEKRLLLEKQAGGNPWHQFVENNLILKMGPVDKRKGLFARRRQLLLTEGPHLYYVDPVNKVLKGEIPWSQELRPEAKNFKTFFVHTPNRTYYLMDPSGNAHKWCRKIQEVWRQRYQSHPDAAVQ

Sequence of Casein kinase II subunit alpha (Homo sapiens) (P68400 whole entry, looked up): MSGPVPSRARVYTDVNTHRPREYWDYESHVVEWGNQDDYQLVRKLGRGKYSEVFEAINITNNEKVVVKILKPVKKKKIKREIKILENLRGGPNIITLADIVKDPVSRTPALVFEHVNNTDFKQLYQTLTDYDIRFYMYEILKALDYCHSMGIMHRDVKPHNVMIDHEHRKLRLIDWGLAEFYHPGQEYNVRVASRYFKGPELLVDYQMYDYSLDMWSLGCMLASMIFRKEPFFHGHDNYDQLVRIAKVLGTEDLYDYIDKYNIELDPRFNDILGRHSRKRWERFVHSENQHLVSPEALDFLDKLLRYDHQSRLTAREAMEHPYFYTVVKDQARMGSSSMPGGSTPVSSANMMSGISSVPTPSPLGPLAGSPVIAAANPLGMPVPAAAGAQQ
Sequence of NUAK family SNF1-like kinase 1 (Homo sapiens) (O60285 whole entry): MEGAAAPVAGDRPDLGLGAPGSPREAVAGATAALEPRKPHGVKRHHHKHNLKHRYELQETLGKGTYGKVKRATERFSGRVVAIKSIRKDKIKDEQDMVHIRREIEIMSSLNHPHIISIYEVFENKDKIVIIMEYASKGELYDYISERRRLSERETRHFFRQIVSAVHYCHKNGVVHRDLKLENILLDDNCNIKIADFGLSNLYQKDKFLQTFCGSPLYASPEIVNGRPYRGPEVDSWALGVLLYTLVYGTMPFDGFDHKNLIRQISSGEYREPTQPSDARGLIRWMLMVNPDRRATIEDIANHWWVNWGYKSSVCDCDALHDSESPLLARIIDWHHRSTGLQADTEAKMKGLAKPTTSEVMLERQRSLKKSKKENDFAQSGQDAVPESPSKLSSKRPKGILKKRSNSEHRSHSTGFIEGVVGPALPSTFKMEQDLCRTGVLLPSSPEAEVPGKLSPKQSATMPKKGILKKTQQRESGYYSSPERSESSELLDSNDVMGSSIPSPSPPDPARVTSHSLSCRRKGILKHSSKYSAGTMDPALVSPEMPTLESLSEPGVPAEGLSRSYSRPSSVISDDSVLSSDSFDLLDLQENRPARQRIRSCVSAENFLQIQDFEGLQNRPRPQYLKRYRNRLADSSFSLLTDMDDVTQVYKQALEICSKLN
Sequence of Maternal embryonic leucine zipper kinase (Homo sapiens) (Q14680 whole entry, looked up): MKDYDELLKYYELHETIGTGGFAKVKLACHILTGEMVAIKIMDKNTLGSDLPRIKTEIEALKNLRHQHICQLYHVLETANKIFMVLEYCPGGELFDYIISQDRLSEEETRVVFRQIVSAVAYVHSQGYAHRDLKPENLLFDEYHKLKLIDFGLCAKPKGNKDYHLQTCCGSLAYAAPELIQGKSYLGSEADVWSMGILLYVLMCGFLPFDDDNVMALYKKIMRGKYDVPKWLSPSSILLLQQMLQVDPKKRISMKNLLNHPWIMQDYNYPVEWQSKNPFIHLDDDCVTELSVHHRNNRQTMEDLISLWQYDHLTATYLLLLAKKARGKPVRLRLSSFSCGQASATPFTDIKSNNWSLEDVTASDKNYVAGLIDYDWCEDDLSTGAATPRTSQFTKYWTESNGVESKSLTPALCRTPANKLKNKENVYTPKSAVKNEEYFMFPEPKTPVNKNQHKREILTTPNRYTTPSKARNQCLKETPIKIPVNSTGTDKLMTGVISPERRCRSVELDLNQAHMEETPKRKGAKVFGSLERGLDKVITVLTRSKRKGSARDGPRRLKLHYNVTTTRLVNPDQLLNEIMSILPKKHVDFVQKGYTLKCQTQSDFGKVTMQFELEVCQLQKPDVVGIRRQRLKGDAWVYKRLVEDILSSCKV
Sequence of Serine/threonine-protein kinase PAK 6 (Homo sapiens) (Q9NQU5 whole entry, looked up): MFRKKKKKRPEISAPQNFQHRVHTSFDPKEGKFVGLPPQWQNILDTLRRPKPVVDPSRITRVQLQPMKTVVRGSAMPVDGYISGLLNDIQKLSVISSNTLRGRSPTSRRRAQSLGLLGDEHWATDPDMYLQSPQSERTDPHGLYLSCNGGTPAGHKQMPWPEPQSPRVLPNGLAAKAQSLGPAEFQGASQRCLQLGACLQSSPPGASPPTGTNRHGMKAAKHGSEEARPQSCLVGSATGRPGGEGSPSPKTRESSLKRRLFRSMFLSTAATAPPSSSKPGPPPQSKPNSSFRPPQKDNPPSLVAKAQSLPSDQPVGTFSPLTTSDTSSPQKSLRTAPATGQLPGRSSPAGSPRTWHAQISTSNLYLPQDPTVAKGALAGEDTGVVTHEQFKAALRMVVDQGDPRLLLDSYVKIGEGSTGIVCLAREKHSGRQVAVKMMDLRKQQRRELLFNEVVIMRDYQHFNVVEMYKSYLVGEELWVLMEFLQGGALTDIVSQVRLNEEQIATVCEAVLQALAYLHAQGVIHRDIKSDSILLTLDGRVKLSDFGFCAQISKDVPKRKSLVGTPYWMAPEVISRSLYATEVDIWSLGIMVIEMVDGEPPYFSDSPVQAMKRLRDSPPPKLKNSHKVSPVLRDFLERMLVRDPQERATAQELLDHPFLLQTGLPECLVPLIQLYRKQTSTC
Sequence of Ribosomal protein S6 kinase alpha-1 (Homo sapiens) (Q15418 whole entry): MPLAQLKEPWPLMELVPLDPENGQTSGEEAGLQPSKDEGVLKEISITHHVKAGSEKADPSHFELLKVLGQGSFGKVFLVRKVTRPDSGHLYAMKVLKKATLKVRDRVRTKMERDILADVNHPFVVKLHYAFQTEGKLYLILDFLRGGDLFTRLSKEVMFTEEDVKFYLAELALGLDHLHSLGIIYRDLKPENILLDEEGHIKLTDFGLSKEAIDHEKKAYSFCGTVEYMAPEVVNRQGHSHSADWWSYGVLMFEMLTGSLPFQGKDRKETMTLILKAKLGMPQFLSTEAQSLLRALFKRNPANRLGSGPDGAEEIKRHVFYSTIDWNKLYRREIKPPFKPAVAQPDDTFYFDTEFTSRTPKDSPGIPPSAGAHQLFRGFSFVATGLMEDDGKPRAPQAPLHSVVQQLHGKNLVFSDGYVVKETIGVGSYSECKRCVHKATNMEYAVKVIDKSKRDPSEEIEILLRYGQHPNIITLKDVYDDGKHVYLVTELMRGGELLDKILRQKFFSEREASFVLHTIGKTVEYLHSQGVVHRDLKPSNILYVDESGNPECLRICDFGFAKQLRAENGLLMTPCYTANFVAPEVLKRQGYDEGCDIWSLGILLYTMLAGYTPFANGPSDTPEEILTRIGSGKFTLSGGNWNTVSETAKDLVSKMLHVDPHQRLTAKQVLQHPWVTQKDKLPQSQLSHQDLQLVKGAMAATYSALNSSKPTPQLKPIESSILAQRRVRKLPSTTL
Sequence of Receptor tyrosine-protein kinase erbB-4 (Homo sapiens) (Q15303 whole entry): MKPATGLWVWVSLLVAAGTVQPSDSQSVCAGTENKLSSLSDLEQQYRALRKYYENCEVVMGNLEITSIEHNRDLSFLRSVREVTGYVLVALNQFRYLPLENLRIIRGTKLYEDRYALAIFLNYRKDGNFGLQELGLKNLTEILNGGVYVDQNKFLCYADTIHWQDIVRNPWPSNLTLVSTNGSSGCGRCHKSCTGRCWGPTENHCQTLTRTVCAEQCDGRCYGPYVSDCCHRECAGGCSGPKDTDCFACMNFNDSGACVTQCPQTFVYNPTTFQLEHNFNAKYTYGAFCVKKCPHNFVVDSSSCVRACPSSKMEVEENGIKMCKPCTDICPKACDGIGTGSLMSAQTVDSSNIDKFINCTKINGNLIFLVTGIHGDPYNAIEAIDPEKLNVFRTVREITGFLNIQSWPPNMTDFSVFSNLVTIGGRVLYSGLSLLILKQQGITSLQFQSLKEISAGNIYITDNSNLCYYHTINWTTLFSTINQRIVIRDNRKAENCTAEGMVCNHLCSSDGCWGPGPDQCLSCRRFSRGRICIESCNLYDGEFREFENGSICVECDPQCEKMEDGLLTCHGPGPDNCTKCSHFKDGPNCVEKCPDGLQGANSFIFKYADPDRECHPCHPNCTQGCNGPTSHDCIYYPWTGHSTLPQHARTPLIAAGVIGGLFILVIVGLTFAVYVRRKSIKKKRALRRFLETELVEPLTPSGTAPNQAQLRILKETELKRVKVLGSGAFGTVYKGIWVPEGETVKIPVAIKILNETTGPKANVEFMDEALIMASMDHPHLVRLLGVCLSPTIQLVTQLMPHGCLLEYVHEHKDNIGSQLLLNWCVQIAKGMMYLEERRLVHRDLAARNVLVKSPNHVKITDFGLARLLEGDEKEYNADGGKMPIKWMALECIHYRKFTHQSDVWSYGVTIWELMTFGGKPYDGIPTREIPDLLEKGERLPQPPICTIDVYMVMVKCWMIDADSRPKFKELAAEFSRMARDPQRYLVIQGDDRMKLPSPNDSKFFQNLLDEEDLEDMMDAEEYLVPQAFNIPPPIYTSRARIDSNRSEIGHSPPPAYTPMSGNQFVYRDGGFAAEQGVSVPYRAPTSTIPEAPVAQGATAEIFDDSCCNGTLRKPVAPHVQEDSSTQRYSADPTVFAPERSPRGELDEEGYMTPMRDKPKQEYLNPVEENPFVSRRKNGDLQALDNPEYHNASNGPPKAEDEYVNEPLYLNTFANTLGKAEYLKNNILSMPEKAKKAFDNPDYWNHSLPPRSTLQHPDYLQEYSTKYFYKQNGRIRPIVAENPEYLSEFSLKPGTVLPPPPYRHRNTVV

In the case of Nc1n[nH]c(N)c1/N=N/c1ccc(O)cc1, the GI50 [1] is reported as 20.6 µM, the GI50 [2] is reported as 18.9 µM and the GI50 [3] is reported as 25.1 µM. It also gave a GI50 [4] of 4.1 µM, a GI50 [5] of 15.9 µM and a GI50 [6] of 24.5 µM. For the same compound, the GI50 [7] was 14.4 µM, the GI50 [8] was 25.6 µM and the inhibition [9] was “Dose-dependent effect”. For the same compound, the Activity [10] was 30%, the Activity [11] was 48% and the Activity [12] was 59%. It also gave an Activity [13] of 46%, an Activity [14] of 40% and an Activity [15] of 97%. For the same compound, the Activity [16] was 93%, the Activity [17] was 94% and the Activity [18] was 66%.
